Experiments:
DA neurons = assay: LPS-induced dopaminergic neurotoxicity in microglia-depleted neuron-glia cultures; type: cell-based; conditions: microglia depleted by LME to <1%, LPS 7 days
Procedure: To evaluate the influence of various kinds of glia contribute to effect of MMT on LPS-induced dopaminergic neurotoxicity, microglia-depleted Neuron-/glia Cultures were performed.

microglia = assay: OX-42 immunostaining of LPS-activated microglia in neuron-glia cultures; type: cell-based; conditions: MMT 3 μM pretreated 30 min, twelve hours after LPS
Procedure: DA neurons were recognized with the polyclonal antibody against tyrosine hydroxylase (TH) and microglia was detected with the OX-42 antibody against CR3 receptor. Briefly, cells were fixed for 20 min at room temperature in 3.7% formaldehyde diluted in phosphate-buffered saline (PBS). After washing twice with PBS, the cultures were treated with 1% hydrogen peroxide for 10 min. […] To quantify cell numbers, nine representative areas per well in the 24-well plate were counted under the microscope at 100× magnification by two individuals. […]
To provide evidence of anti-inflammatory effect of MMT, the degree of inhibition of LPS-induced activation of microglia was determined by 1) morphological observation after immunostaining of microglia marker (OX-42) and 2) release of pro-inflammatory factors from activated microglia, such as extracelloualr superoxide radicals, intracellular reactive oxygen species (iROS), nitric oxide (NO), PGE2. […]

nitric oxide = assay: Nitrite assay (Griess reagent) after LPS; type: cell-based; conditions: 24 and 48 h after LPS stimulation
Procedure: As an indicator of nitric oxide production, the amount of nitrite accumulated in culture supernatant was determined with a colorimetric assay using Griess reagent [1% sulfanilamide, 2.5% H3PO4, 0.1% N-(1-naphthyl)ethylenediamine dihydrochloride]. Briefly, 50 μL of Griess reagent and 50 μL of culture supernatant were incubated in the dark at room temperature for 10 min. After incubation, the absorbance at 540 nm was determined with the Spectra Max Plus microplate spectrophotometer. The sample nitrite concentration was determined from a sodium nitrite standard curve.
Neuron-glia cultures were pretreated for 30 min with MMT (3 μM) or vehicle before LPS stimulation. […] Production of superoxide (30 min after LPS) and iROS (2 h after LPS) was decreased by MMT treatment (FIGS. 6A and 6B). […] The production of PGE2 in cultures pretreated with 3 and 10 μM MMT decreased by 23% and 27% respectively (FIG. 6E).

TH-ir neurons = assay: Cell count of TH-ir neurons in rat neuron-glia cultures; type: cell-based
Procedure: For visual counting of TH-ir neurons after Immunostaining, nine representative areas per well of the 24-well plate were counted under the microscope at 100¥ magnification. To measure the average TH-ir dendrite, 50 TH-ir representative neurons in each well were selected and three wells for each treatment condition were selected. In addition, the average dendrite length of TH-ir neurons was measured (Liu Y X, Qin L, Wilson B C, An L, Hong J S and Liu B (2002b) Inhibition by naloxone stereoisomers of -amyloid peptide (1-42)-induced superoxide production in microglia and degeneration of cortical and mesencephalic neurons. J Pharmacol Exp Ther 302: 1212-1219.).
Rat mesencephalic neuron-glia cultures were pretreated for 30 min with vehicle or 1, 3, 10 μM MMT before adding LPS (2.5 to 5 ng/ml) to the cultures. One week later, the neurotoxic effect of LPS on DA neurons were assessed by both [H^3] DA uptake, which measures the functional capacity of high affinity uptake of DA cells and cell count of tyrosine hydroxylase-positive (TH-ir) cells. [H^3] […] MMT alone increased the uptake capacity by 30-80% in 3 and 10 μM of MMT, respectively. […] The neurotrophic effect of MMT is astrocyte-dependent. Astrocytes, not micrglia, contribute to the neurotrophic effect of MMT at 1-10 μM MMT (FIG. 10).
In addition to the pre-treatment experiments, similar studies using post-treatment designs were conducted to determine the efficacy of MMT. In these experiments, neuron-glia cultures were either treated with MMT (10 μM) and LPS (2.5 ng/ml) at the same time, or MMT was added 30, 60, 120 or 180 min after the addition of LPS. One week later, DA uptake of the culture was assayed.
DA neurons were recognized with the polyclonal antibody against tyrosine hydroxylase (TH) and microglia was detected with the OX-42 antibody against CR3 receptor. […] To quantify cell numbers, nine representative areas per well in the 24-well plate were counted under the microscope at 100× magnification by two individuals. […]

[1] = test system: rewarding effect of morphine; assay: Conditioned place preference (CPP) test in chronic morphine-treated rats; type: in vivo, SD rats
Procedure: The SD rats were divided into four groups as follow: • 1. Control group: (inject saline only) • 2. Morphine only group: (M, 5 mg/kg) • 3. Pretreatment memantine (MEM, 0.2 mg/kg) with morphine group • (MEM was administrated 30 min before each M injection for 6 days) • 4. Post-treatment MEM group • (MEM was administrated after chronic M injection for 6 days)
Drug-induced reward effect was measured by the conditioned place preference (CPP) test. The CPP test apparatus was divided into two compartments. A two compartment box (60×29.2×29.2 cm) with a transparent Plexiglas front was separated by a gray cylinder platform (10.3 cm in diameter and 12 cm in height) as the Dr. Tseng described previously was used (Terashvili et al., 2008). One compartment was white with a textured floor and the other was black with a smooth floor. […] We determined the place preference before conditioning and on the day after conditioning (day 0, day 7, day 11 and day 13) by placing the rat into the CPP test apparatus with the gray cylinder doors open for 15 min. The time that the rats stayed in each compartment was recorded. The measurement of the drug reward effect was determined by the increase in the time spent in the compartment previously paired with drug injection relative to that spent in the saline-paired compartment.

## CC12CC3CC(C)(C1)CC(N)(C3)C2.Cl [MMT, 1-amino-3,5-dimethyladamantane hydrochloride]
DA neurons
  protective effect against LPS-induced dopaminergic neurotoxicity: not found in depletion of microglia
microglia
  activation of OX-42 stained microglia vs LPS-treated cultures: less activated
Nitric oxide
  release of NO (measured as nitrite): reduced
TH-ir neurons; MMT 3 and 10 μM
  effect on LPS-induced reduction in the number of TH-ir neurons: significantly attenuated the LPS-induced reduction in the number of TH-ir neurons
TH-ir neurons; MMT alone
  growth of neurites (morphological observation): enhanced the growth of neurites
  number of TH-ir (DA) neurons vs vehicle control: increased the survival DA neuron number
[1]; post-treatment, memantine 0.2 mg/kg s.c. once daily for 6 days after chronic morphine
  time of staying in the compartment paired with morphine (CPP): reduced time of staying in the compartment paired with morphine
[1]; pretreatment, memantine 0.2 mg/kg s.c. 30 min before each morphine 5 mg/kg i.p., 6 days
  time of staying in the compartment paired with morphine (CPP): reduced time of staying in the compartment paired with morphine

From patent US20150080475A1, “Memantine Protects Inflammation-Related Degeneration of Dopamine Neurons Through Inhibition of Over-Activated Microglia and Release of Neurotrophic Factors From Astroglia” (priority 2009, published 2015)
